Assay results taken from patent US8580843B2, “Use of diindolylmethane (DIM) compounds and derivatives as neuroprotective agents” (Colorado State University Research Foundation, priority 2008, dated 2013).

Key:
[1] = tested on: 3-nitrotyrosine protein nitration in astrocytes; test: Immunofluorescence of 3-nitrotyrosine adducts (protein nitration) in primary astrocytes treated with MPTP and cytokines; format: cell-based, mouse
Procedure: Immunofluorescence. Primary astrocytes were grown to confluence on 20 mm serum-coated glass coverslips and treated with saline or MPTP (10 μM), TNF-α (10 pg/ml), and IFN-γ (1 ng/ml) with or without DIM-C-pPhtBu (10 μM), rosiglitazone (10 μM), the NOS2 inhibitor AMT (25 nM) or NOS 1 inhibitor 7-NI (10 μM), or a DMSO vehicle control 8 hours prior to analysis. Immunofluorescence to confirm culture purity was conducted on cells grown to confluence on the 20 mm glass coverslips. Blocking and antibody hybridization was conducted in 1% BSA (w/v) in PBS, and all washes were conducted in PBS. Images were acquired using a Zeiss 20× air PlanApochromat objective and 6-8 microscopic fields were examined per treatment group over no less than three independent experiments. Fluorescent secondary antibodies were used to detect GFAP (488 nmcx/519 nmcm) and Iba1 or nitrosylated protein (647 nmcx/668 nmcm), respectively, while mounting medium containing DAPI (360 nmcx/460 nmcm) was used to identify cell nuclei.
The effect of NOS2 induction by MPTP and inflammatory cytokines on global protein nitration following NO/peroxynitrite (ONOO—) formation in astrocytes was examined by immunofluorescence (FIG. 3). Immunofluorescence using antibodies against GFAP (FITC) and 3-nitrotyrosine adducts (Cy5) was employed to measure the extent of protein nitration within astrocytes treated with MPTP and cytokines, with or without inclusion of DIM-C-pPhtBu (10 μM), rosiglitazone (10 μM), the high-affinity NOS2 inhibitor AMT (25 nM), the NOSI inhibitor 7-NI (10 μM) or a DMSO vehicle control. […] Co-treatment of astroytes with DIM-C-pPhtBu prevented MPTP-induced increases in nitration, resulting in similar levels of 3-nitrotyrosine adducts as saline-treated control cells (FIG. 3C). Mean intracellular fluorescence for 3-nitrotyrosine was quantified and compared between each treatment group (FIG. 3D).

[2] = tested on: primary striatal neurons co-cultured with activated astrocytes; test: Astrocyte-neuron co-culture: apoptosis of primary striatal neurons (caspase activity, Annexin V binding); format: cell-based, mouse; conditions: astrocytes co-treated with 25 nM for 8 hours, six hours of co-culture; FIG. 6 C-D
Procedure: Astrocyte Neuron Co-Culture. Cells were isolated as described above and astrocytes grown to confluence on permeable cell culture inserts (BD Biosciences, San Jose, Calif.) prior to treatment. Astrocytes were then treated with MPTP (10 μM), TNF-α (10 pg/ml) and IFN-γ (1 ng/ml) in the presence or absence of DIM-C-pPhtBu (10 μM), Rosiglitazone (10 μM) AMT (25 nM), or DMSO vehicle control for 8 hours. Media was then removed, and the astrocytes washed three times with sterile PBS to prevent carryover of treatment medium to the neurons, and the inserts were placed directly in each well over cultured neurons. Astrocyte-containing inserts were removed following six hours of co-culture, and neuronal caspase activity and phosphatidylserine translocation were measured by widefield fluorescence microscopy using the general cell permeable fluorescent caspase substrate rhodamine 110, bis-(L-aspartic acid amide) and an Annexin V Alexa Fluor 680 conjugate, respectively. Images were acquired using a Zeiss 20× air PlanApochromat objective and at least 10 microscopic fields were examined per treatment group over three independent experiments.
The efficacy of DIM-C-pPhtBu in preventing astrocyte-dependent neuronal apoptosis was examined in FIG. 6. Astrocytes were grown to confluence in cell culture inserts that are permeable to small molecules but prevent direct cell-cell contact. Following treatment of astrocytes with MPTP and TNF-α/IFN-γ in the presence or absence of DIM-C-pPhtBu (10 μM), rosiglitazone (10 μM), the NOS2 inhibitor AMT (25 nM), or DMSO, astrocytes were washed with PBS and co-incubated directly above primary striatal neurons in neurobasal medium. Indices of neuronal apoptosis were then measured using live-cell fluorescence imaging of caspase activity (FIG. 6A) and Annexin V binding (FIG. 6B). […] The DMSO vehicle control had no suppressive effect.
Differing letters denote statistical significance (p<0.05).

In the case of `CC1CCN=C(N)S1` (stereo not drawn) [AMT, 2-amino-5,6-dihydro-6-methyl-4H-1,3-thiazine], the “MPTP-induced increase in 3-nitrotyrosine formation” value ([1]; 25 nM co-treatment, astrocytes, FIG. 3D) was “prevented”, the “Protein nitration in primary astrocytes induced by MPTP and TNF-α/IFN-γ” value ([1]; FIG. 7(D), concentration not given) was “prevents protein nitration” and the “Apoptosis in co-cultured striatal neurons (caspase activity and Annexin V-binding)” value [2] was “prevented”.
